Like-named read-outs stand apart in the source and are kept apart here.

The source of these data is paper PMC12948223, “HSP70 Interactome‐Mediated Proteolysis Targeting Chimera (HSP70‐PROTAC) for Ferroptosis‐Driven Cancer Treatment” (Advanced Science, 2025).

The subject of series [1] is HT1080 cells. Description: Cell viability CCK-8 assay. The class given is cell-based, human. As to conditions: CCK-8, 48 h, read-out: IC50 (cytotoxicity). The procedure:
To determine whether GPX4 degradation following treatment with HSP70‐PROTACs triggers cancer cell ferroptosis, we initially assessed the viability of HT1080 cells using the CCK‐8 assay after treatment with various concentrations of the tested compounds for 48 h. GPX4 inhibitor ML162, HSP70 inhibitor apoptozole, and two GPX4 non‐degradable HSP70‐PROTAC molecules, GDAz‐Neg1 and GDAz‐Neg2, were selected as controls. […] This remarkable activity might partly be ascribed to the high cell permeability conferred by the piperazine ring. […] We speculated that the potent anti‐proliferative activity of GDAz‐Neg2 may be attributed to the GPX4 inhibition.
The compounds under investigation were initially dissolved in dimethyl sulfoxide (DMSO) to generate stock solutions with a concentration of 10 mM. HT1080 cells or other tested cells were seeded in 96‐well plates at a density of 3000–5000 cells well^−1 and cultured at 37 °C. Following a 24‐h incubation period, the tested compounds were added to the wells at various concentrations (the DMSO stock solutions of all the tested compounds were diluted with culture medium to obtain the designated concentration containing a final concentration of DMSO less than 0.5% (v/v)). The cells were then cultured for an additional 48 or 72 h. Cell Counting Kit 8 (CCK‐8) assay was conducted to examine the effects of the tested compounds on cell viability, and the absorbance was measured at a wavelength of 450 nm. The IC50 values were determined utilizing GraphPad Prism software through nonlinear regression analysis. All experiments were independently repeated at least three times.
In general terms: Tetrazolium assays rely on reduction of a dye to a coloured formazan, in cell work by metabolically active cells.

In the next series the test system is HT1080 xenograft tumor. Nature of the series: HT1080 xenograft tumor mouse model, antitumor efficacy and safety. As to conditions: 30 mg/kg IP once daily. The class given is in vivo. The procedure: Motivated by the aforementioned in vitro findings, we subsequently sought to evaluate the in vivo antitumor efficacy of GDAz‐3 using an HT1080 xenograft tumor mouse model. The tumor‐bearing mice were randomly divided into six groups, minimizing weight and tumor size differences among the groups (n = 6 in each group). The treatment group mice were administered once daily by intraperitoneal injection (IP) with GDAz‐3 at a dosage of 30 or 60 mg kg^−1, while the control group animals were treated with the corresponding solvent, ML162, and apoptozole at a dosage of 30 mg kg^−1. Additionally, we set up a drug combination group to confirm the superiority of GDAz‐3. After treatment for 17 days, animals were humanely euthanized and the tumors were excised (Figure 7B). […] The advantage of the safety of GDAz‐3 was also determined by the hematoxylin and eosin (H&E) staining. […] In general, compared with the single inhibitor or their combination, the in vivo antitumor study confirmed the efficacy and safety of GDAz‐3.
The experimental procedures of the animal experiments were permitted by the Hangzhou Institute of Medicine (HIM), Chinese Academy of Sciences (AP2024‐07‐0010). Male BALB/c nude mice (6 weeks old) were housed under pathogen‐free conditions, maintained at a constant room temperature, and fed standard rodent chow and water. An HT1080 fibrosarcoma xenograft model in nude mice was established through subcutaneous transplantation. When the tumors emerged, the mice were randomly divided into six groups with six mice in each group: GDAz‐3‐treated at 30 or 60 mg kg^−1 group and control groups, including the vehicle group, and each of the two inhibitor‐treated groups (ML162 and apoptozole) at 30 mg kg^−1, and their combinations. The mice were intraperitoneally (IP) injected daily according to their body weight. Body weight and tumor size were measured every other day, and the tumor volume and body weight were recorded every other day after drug treatment. After treatment, the animals were euthanized by cervical dislocation, and the tumor bulks were peeled off and weighed. The organ tissues (tumor, heart, liver, spleen, lung, and kidney) were harvested and fixed with 4% paraformaldehyde for hematoxylin‐eosin (H&E) and immunohistochemistry (IHC) staining. In addition, the expression of GPX4 in tumor samples was analyzed in vehicle‐ and GDAz‐3‐treated groups by western blot assay.

Another series addresses Hsc70. Also noted: method as in PMID 18729127. The following applies: cited from earlier work.
Another series concerns the target Hsp70. On the set-up: method as in PMID 18729127. The following applies: cited from earlier work.
Series [2] addresses T1, GPX4 (Homo sapiens, UniProt P36969).
T1 sequence (P36969 1-170 isoform P36969-2): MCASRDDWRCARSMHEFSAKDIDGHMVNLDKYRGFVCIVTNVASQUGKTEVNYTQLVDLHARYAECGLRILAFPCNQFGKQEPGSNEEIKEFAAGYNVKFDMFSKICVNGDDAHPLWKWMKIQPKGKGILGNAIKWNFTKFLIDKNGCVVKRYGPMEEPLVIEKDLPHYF
Description: GPX4 degradation by western blot in HT1080 cells. The series is classed as cell-based. As to conditions: HT1080 cells, 0.3 µM, 24 h (Figure 3A). On the set-up: determine the changes in the endogenous levels of GPX4 by western blot assay; endogenous in cells; host or cells: HT1080 fibrosarcoma cells, including siRNA-knockdown derivatives. The procedure: To evaluate the GPX4 degradation efficiency of the synthesized HSP70‐PROTACs GDAz‐1–14, we first selected ferroptosis‐sensitive HT1080 fibrosarcoma cells (highly‐expressing GPX4) treated with different concentrations (0.1, 0.3, 1, and 3 µM) of these chimeras to determine the changes in the endogenous levels of GPX4 by western blot assay after 24 h treatment. […] This finding underscores the crucial role of the linker in HSP70‐PROTAC‐mediated protein degradation. […] In the case of alkyl chain derivatives (GDAz‐6–10), elongating the length of the linker generally led to a decreased GPX4 degrading activity. […] Thus, GDAz‐3 was selected for further evaluation.
(§1) Cells were seeded at a density of 4 × 10^5 cells well^−1 in 6‐well plates and allowed to incubate overnight. Cells were incubated with the indicated treatments. Thereafter, the cells were collected and lysed with RIPA buffer containing serine protease and phosphatase inhibitors for 30 min on ice. Proteins were quantified by using a BCA protein assay kit (Beyotime). Subsequently, SDS‐PAGE sample loading buffer was added, and the mixture was heated in a 100 °C metal bath for 10 min to denature the proteins. Protein samples from each group were separated by SDS‐PAGE gel and transferred to a PVDF membrane. After blocking with 5% skim milk for 1 h at room temperature, primary antibodies (GPX4: abcam (#ab125066, 1:1000); Hsp70: abcam (#ab2787, 1:1000); CHIP: HUABIO (#ST7108, 1:1000); UpingBio Technology Co., Ltd. (BRD4, #YP‐Ab‐18034, 1:1000; BAG‐1, #YP‐Ab‐00575, 1:1000); GAPDH: Proteintech (#60004‐1‐Ig, 1:50 000)) were used and incubated at 4 °C overnight on a rotary shaker. After washing the membranes with TBST buffer five times, the membranes were incubated with a second antibody (Cell Signaling Technology, #7074S, 1:1000 and #7076S, 1:1000) at room temperature for 2 h. Ultimately, the membrane was washed five times, and the antibody‐protein complexes were visualized using an ECL luminescence reagent (Biosharp, Shanghai, China). The relative intensities of the bands were analyzed by ImageJ and normalized to a loading control.

A further series addresses T2, BRD4 (Homo sapiens, UniProt O60885).
T2 construct: effectively degrading additional endogenous bromodomain‐containing protein 4 (BRD4) in cancer cells; endogenous in cells; host or cells: MOLT-4
Nature of the series: BRD4 degradation by western blot in MOLT-4 cells. The series is classed as cell-based. The following applies: 48 h.
Source text: To expand beyond the GPX4 degradation, we next sought to investigate the potential of the HSP70 complex to facilitate the degradation of additional proteins. We selected oncoprotein bromodomain containing 4 (BRD4), a degradable protein that not only has been widely used as a model substrate for development of new technologies in the TPD field, but also serves as a validated therapeutic target for multiple cancers. We synthesized three heterobifunctional compounds (GDAz‐15–17) by conjugating the HSP70 binding moiety apoptozole to the well‐established BRD4 inhibitor (+)‐JQ‐1 (a potent, specific, and reversible BRD4 inhibitor extensively applied in TPD) via PEG linkers of varying lengths (Figure 8E; Scheme S6, Supporting Information). T lymphoblast MOLT‐4 cell line with BRD4 overexpression was selected for biological evaluation.
as §1, with “After washing the membranes with TBST buffer five times, the membranes were incubated with a second antibody (Cell Signaling Technology, #7074S, 1:1000 and #7076S, 1:1000) at room temperature for 2 h.” left out
(In general: In western blotting, separated proteins are transferred to a membrane and probed.)

For series [3], the system named is HT1080 cells. Also noted: method as in PMID 39230973. As to conditions: same experimental conditions, cited from earlier work.
Series [4] addresses T1, GPX4. Nature of the series: GPX4 degradation by western blot in 786-O cells. The class given is cell-based. On the set-up: endogenous in cells; host or cells: 786-O. The following applies: up to 10 µM, 24 h; sentence reads 'neither ... nor ... induced any degradation effect' = no degradation.
Source text: As previously mentioned, drug resistance and limited application scope are the significant challenges of traditional PROTAC, due partly to CRBN/VHL mutations or low expression. In this study, we investigated whether the developed HSP70‐PROTAC could address these challenges. Specifically, we examined the developed HSP70‐PROTAC in scenarios where VHL‐ or CRBN‐based PROTACs are ineffective due to intrinsic or acquired resistance. Several previously reported representative GPX4‐targeting degraders, including dGPX4 (CRBN‐based PROTAC, Figure 1A), 8e (VHL‐based PROTAC, Figure 1B), and GDCNF‐11/2 (HSP90‐based HIM‐PROTAC, Figure 1C, the structure of the GDCNF‐11 derivative GDCNF‐2 was not shown) were selected as control agents.^[ [18], [23], [28] ^] […] The clear cell renal cell carcinoma (ccRCC) 786‐O cell line is a well‐established cancer cell model characterized by an intrinsic deficiency in VHL expression.^[ [43], [44], [45] ^] We also confirmed this characteristic through evaluating the VHL expression levels in several randomly selected cancer cell lines (Figure S10A, Supporting Information). We further selected 786‐O cells as a model to confirm whether HSP70‐PROTAC could be used in such cases as an alternative to VHL‐based degraders, because VHL‐based PROTACs cannot be used to treat kidney cancer with a mutation or deletion in the VHL gene.
as §1

The target in series [5] is T1, GPX4. On the set-up: determine the changes in the endogenous levels of GPX4 by western blot assay; endogenous in cells; host or cells: HT1080 fibrosarcoma cells, including siRNA-knockdown derivatives; method as in PMID 39230973. The following applies: cited from earlier work.
The subject of the next series is ferroptosis. Also noted: method as in PMID 34506134, PMID 35648631. As to conditions: cited from earlier work.

Regarding `COc1ccc(-c2nc(-c3cc(C(F)(F)F)cc(C(F)(F)F)c3)n(Cc3ccc(C(N)=O)cc3)c2-c2ccc(OC)cc2)cc1` [Apoptozole, reference compound], the half-maximal inhibitory concentration (IC50) in the series on HT1080 cells [1] worked out at 17000 nM. In the series on HT1080 xenograft tumor, the “Toxic effects during treatment” value was “serious toxic effects such as death”. Further, the Kd is 210 nM at Hsc70 and 140 nM at Hsp70. Moreover, the GPX4 degradation result at GPX4 [2] was “this degradation effect was not observed”.
For the molecule `COc1ccc(-c2nc(-c3cc(C(F)(F)F)cc(C(F)(F)F)c3)n(Cc3ccc(C(=O)NCCOCCOCCOCCOCCNC(=O)C[C@@H]4N=C(c5ccc(Cl)cc5)c5c(sc(C)c5C)-n5c(C)nnc54)cc3)c2-c2ccc(OC)cc2)cc1` [GDAz-17, (S)-4-((2-(3,5-bis(trifluoromethyl)phenyl)-4,5-bis(4-methoxyphenyl)-1H-imidazol-1-yl)methyl)-N-(1-(4-(4-chlorophenyl)-2,3,9-trimethyl-6H-thieno[3,2-f][1,2,4]triazolo[4,3-a][1,4]diazepin-6-yl)-2-oxo-6,9,12,15-tetraoxa-3-azaheptadecan-17-yl)benzamide], at BRD4, the BRD4 degradation entry is on record as “effectively trigger BRD4 degradation”.
In the case of `COc1c(C)cnc(Cn2cnc3c(NCCC4CCN(C(=O)Cn5cc(COc6ccc(N(C(=O)CCl)C(C(=O)NCCc7ccccc7)c7cccs7)cc6Cl)nn5)CC4)nc(N)nc32)c1C` (centres unmarked) [GDCNF-11], in the series on HT1080 cells [3] (read-out: IC50 (antiproliferative activity)), the IC50 was 790 nM. Moreover, the Ferroptosis selectivity index entry in the series on HT1080 cells [3] is recorded as “about 45 fold”. Further, the “GPX4 degradation in 786-O cells” value at GPX4 [4] was “induced any degradation effect”. The “Onset of GPX4 protein degradation” value on GPX4 [5] is given as “initiating GPX4 protein degradation after 12 h”.
With `COC(=O)c1ccc([C@@H]2c3[nH]c4ccccc4c3C[C@@H](C(=O)OC)N2C(=O)CCl)cc1` [RSL3], the “Ferroptosis selectivity (SI)” value with ferroptosis is recorded as 3.1.

A word on the IC50: it is the midpoint of a concentration-inhibition curve. Broadly, the Kd is the equilibrium constant for the complex coming apart.
